# Publication PMC7898822, “RNA‐PROTACs: Degraders of RNA‐Binding Proteins” (Angewandte Chemie (International Ed. in English), 2020)
# Key:
# QKI (pDEST-Myc-QKI) = assay: Ubiquitination assay of Myc-QKI (negative control RBP) in 22Rv1 cells; assay type: cell-based; conditions: pDEST-Myc-QKI and HA-Ub, 500 nM, 48 h
# Procedure: (§1) Next, we investigated the ability of ORN3P1 and ORN7P1 to mediate ubiquitination of Lin28 in cells, using a previously described protocol. ^[32] Cells from the prostate cancer cell line 22RV1, which express very low levels of Lin28, were co‐transfected with two plasmids expressing pCMV‐myc‐Lin28A and HA‐tagged polyubiquitin (HA‐Ub).
# (§2) After 48 h of incubation with ORN3P1 and ORN7P1, the tagged Lin28 (and the control QKI) was immunoprecipitated using an anti‐Myc antibody. The isolated protein was then analyzed by western blotting using the anti‐HA and anti‐c‐Myc antibodies. Consistent with other previously described PROTAC reagents,[ ^32 , ^33 ]
# (§3) The protein extracts (12-17 µg) were run on a 4-20% SDS-PAGE and transferred on a nitrocellulose blotting membrane 0.22 µm (GE Healthcare) using the Trans-Blot transfer device (Biorad). Membranes were blocked with 5% milk and incubated with the primary antibody overnight at 4 °C. Membranes were washed with 0.05% PBS-T and reacted with the secondary antibody for 1 h in 5% milk. The proteins were detected using the anti-lin28a antibody (Cell Signaling technology, D9F5), anti-lin28b antibody (Cell Signaling technology, 4196S), anti-rbfox1 (NovusBio, NBP2-13169SS), at 1:1000 and anti-hrnp c antibody […]
# (§4) (Abcam, AB133607) at 1:10000 dilutions. […]
# (§5) on a ChemiDoc MP imager (Biorad). The intensity of the signal was quantified using the ImageJ-Fiji software. […]
# Lin28A [1] = assay: Confocal microscopy, LIN28A level in K562 cells; assay type: cell-based, human; conditions: FAM labelled ORN3P1, 1 µM, 24 h
# Lin28A [2] = assay: Western blot of Lin28A in NT2/D1 cells; assay type: cell-based, human; conditions: 2 μM, three independent experiments
# Text: Finally, we tested RNA‐PROTACs for their ability to degrade their target in two cell lines: the embryonic NT2/D1 cell line, which expresses high levels of Lin28A, ^[13a] and K562 cells which express Lin28A and Lin28B. […] Finally, we co‐treated K562 cells with ORN3P1 and MG132, a reversible inhibitor of the 26S proteasome. […] In order to explore the versatility of RNA‐PROTACs with non peptide‐based VHL ligands, we conjugated small‐molecule VH032 ^[38] to ORN3 via an amino linker to yield ORN3VH032 (Figure S1). […]
# myc-Lin28A = assay: Ubiquitination assay of myc-Lin28A in 22Rv1 cells; assay type: cell-based; conditions: HA-Ub co-transfected, 500 nM, 48 h, anti-HA western blot after cMyc IP
# Procedure: as §1, §2, §3, §4, §5
# Lin28B = assay: Confocal microscopy, LIN28B level in K562 cells; assay type: cell-based, human; conditions: FAM labelled ORN3P1, 1 µM, 24 h
# K562 cells [3] = assay: Confocal microscopy, intracellular localization in K562 cells; assay type: cell-based, human; conditions: FAM labelled ORN3P1, 1 µM, 24 h
# K562 cells [4] = assay: Intracellular uptake of FAM-labelled oligonucleotides, fluorescence microscopy; assay type: cell-based, human; conditions: FAM-conjugated, 1 µM, 24 h
smiles,measurement,setting,value
CC[C@H](C)[C@H](NC(=O)[C@H](Cc1ccc(O)cc1)NC(=O)[C@@H]1C[C@@H](O)CN1C(=O)[C@H](C)NC(=O)[C@H](CC(C)C)NC(=O)CCCCCNC(=O)[C@@H](N)CSC1CC(=O)N(CCOP(=O)(S)OC[C@H]2O[C@@H](n3cnc4c(N)ncnc43)[C@H](OCCOC)[C@@H]2OP(=O)(S)OC[C@H]2O[C@@H](n3cnc4c(=O)[nH]c(N)nc43)[C@H](OCCOC)[C@@H]2OP(=O)(S)OC[C@H]2O[C@@H](n3cnc4c(=O)[nH]c(N)nc43)[C@H](OCCOC)[C@@H]2OP(=O)(S)OC[C@H]2O[C@@H](n3cnc4c(N)ncnc43)[C@H](OCCOC)[C@@H]2OP(=O)(S)OC[C@H]2O[C@@H](n3cnc4c(=O)[nH]c(N)nc43)[C@H](OCCOC)[C@@H]2OP(=O)(S)OC[C@H]2O[C@@H](n3cnc4c(N)ncnc43)[C@H](OCCOC)[C@@H]2OP(=O)(S)OC[C@H]2O[C@@H](n3cc(C)c(=O)[nH]c3=O)[C@H](OCCOC)[C@@H]2O)C1=O)C(=O)O (stereo partly shown) [ORN3P1],ubiquitination of QKI,QKI (pDEST-Myc-QKI),showed no such effects
same,LIN28A degradation by confocal microscopy,Lin28A [1],LIN28A is degraded
same,reduction of Lin28A,Lin28A [2],~50%
same,ubiquitination of myc-Lin28A,myc-Lin28A,showed a smear on the gel towards higher molecular weight
same,LIN28B by confocal microscopy,Lin28B,relatively unaffected
same,intracellular presence by confocal microscopy,K562 cells [3],in the cytoplasm and nuclei of K562 cells
same,intracellular localization,K562 cells [4],present in the cytoplasm and nuclei of K562 cells
